Here are results for 4 compounds from paper PMC7374170, “TRIB3-EGFR interaction promotes lung cancer progression and defines a therapeutic target” (Nature Communications, 2020).

One data set has as its system A549 cells. The data set is described as follows: A549 subcutaneous xenograft (tumor growth, tumor weight, liver metastasis). The data set is classed as in vivo, BALB/c nude mice. The note with it: dose not given. The source says:
Fig. 7 Targeting EGFR stability inhibits lung cancer initiation and progression. a A549 tumor growth curves under different treatment. b Quantitative analysis of metastatic nodule numbers from mice as described in a. c NCI-H1975 tumor growth curves under different treatment. d Quantitative analysis of metastatic nodule numbers from mice as described in c. Data in a–d are presented as means ± SEM, n = 8. e The EGFR–TRIB3 or EGFR–PKCα interaction in xenograft tumors from indicated mice were detected with CO-IP assays. […] Statistical difference was determined by two-sided log-rank test, n = 14. i Survival curves for mice orthotopically lung implanted with NCI-H1975 cells under indicated treatment. […] Data are means ± SEM of three independent assays. Statistical significance between two groups was determined with two-tailed Student’s t test. Statistical significance among groups was determined by one-way ANOVA test. Source data are provided as a Source Data file. […]
a, Quantified tumor weight from mice subcutaneously inoculated with A549 cells under indicated treatment after tumor inoculation. Data are means ± SEM, n = 8. b, Representative graphs of liver and immunohistochemical staining of the liver sections with anti-hMitochondria […]
IB. Data are means ± SEM of 3 independent assays. Data in d-h are representatives of 3 independent assays. Statistical significance between two groups was determined by two-tailed Student’s t-test; Statistical significance among groups was determined by one-way ANOVA test. Source data are provided as a Source Data ﬁle.
For the subcutaneous tumor model, A549 (1.0×10 5), NCI-H1975 (3.0×105) or patient-derived NSCLC cancer cells (4.0×105) were injected subcutaneously into the right flank of each mouse to establish the NSCLC xenograft model. When average tumor volume reached about 100 mm3, mice were randomized into various groups for different sets of experiments. Tumor growth was monitored twice weekly with a caliper. Tumor volume (TV) was calculated using the formula: […]

Data set [1] relates to NCI-H1975 cells. The data set is described as follows: NCI-H1975 subcutaneous xenograft (tumor growth, tumor weight, metastasis). The note with it: dose not given. The data set is classed as in vivo, BALB/c nude mice.
The test system of data set [2] is EGFR signaling proteins in xenograft tumors. The data set can be described thus: Immunoblot / CO-IP of xenograft tumor tissue. It counts as in vivo. The note with it: NCI-H1975 inoculated mice, long-term treatment.
Description: Data in a–d are presented as means ± SEM, n = 8. e The EGFR–TRIB3 or EGFR–PKCα interaction in xenograft tumors from indicated mice were detected with CO-IP assays. […] Data are means ± SEM of three independent assays. Statistical significance between two groups was determined with two-tailed Student’s t test. Statistical significance among groups was determined by one-way ANOVA test.
Data are means ± SEM, n = 8. d, EGFR and its signaling proteins in xenograft tumors from NCI-H1975 inoculated mice were detected by IB. e, Stem cell markers in xenograft tumors from NCI-H1975 inoculated mice mice were detected by IB. f, Expressions of TRIB3 and EGFR were detected by IB in tumor samples from PDX mice. g, NCI-H1975 cells were treated with 5 µM of the indicated peptides or 0.5 µM AZD9291for 24 hr. The expression of indicated proteins was detected with IB. h, NCI-H1975 cells were treated with 5 µM of the indicated peptides for 24 hr. The expression of several receptor tyrosine kinases was detected with IB. i, NCI-H1975 cells were pretreated with 5 µM of the indicated peptides for 12 hr. […] The indicated proteins were detected by IB. […] Statistical significance between two groups was determined by two-tailed Student’s t-test; Statistical significance among groups was determined by one-way ANOVA test. […]
analysis. Signals were detected by Tanon 5200 chemiluminescent imaging system (Tanon, […]
Data set [3] concerns NCI-H1975 cells. The data set is described as follows: Immunoblot of EGFR, HER2 and receptor tyrosine kinases, NCI-H1975 cells. It counts as cell-based, human.
Description: Data are means ± SEM, n = 8. d, EGFR and its signaling proteins in xenograft tumors from NCI-H1975 inoculated mice were detected by IB. e, Stem cell markers in xenograft tumors from NCI-H1975 inoculated mice mice were detected by IB. f, Expressions of TRIB3 and EGFR were detected by IB in tumor samples from PDX mice. g, NCI-H1975 cells were treated with 5 µM of the indicated peptides or 0.5 µM AZD9291for 24 hr. The expression of indicated proteins was detected with IB. h, NCI-H1975 cells were treated with 5 µM of the indicated peptides for 24 hr. The expression of several receptor tyrosine kinases was detected with IB. i, NCI-H1975 cells were pretreated with 5 µM of the indicated peptides for 12 hr. The cells were then incubated with CHX (10 µg ml-1) for indicated times. The indicated proteins were detected by IB. Data are means ± SEM of 3 independent assays. Data in d-h are representatives of 3 independent assays. Statistical significance between two groups was determined by two-tailed Student’s t-test; Statistical significance among groups was determined by one-way ANOVA test. Source data are provided as a Source Data ﬁle.
Immunoblotting, Immunostaining and Immunohistochemistry
Proteins were extracted from cells and tissues using a RIPA lysis buffer (Applygen
Technologies Inc. Beijing, China). Equal protein amounts were loaded for SDS-PAGE,
followed by transfer to polyvinylidene difluoride membranes, and subjected to immunoblot
analysis. Signals were detected by Tanon 5200 chemiluminescent imaging system (Tanon,
Shanghai, China). The western blots were scanning densitometry using Gel Pro Analyzer 3.2
and calculated relative to GAPDH. If not specifically indicated, the data was presented as means
± SEMs of 3 independent biological experiments.
The subject of data set [4] is cell surface EGFR in A549 cells. The data set can be described thus: Cell surface EGFR by flow cytometry, A549. It counts as cell-based, human. As for the experimental part:
Fig. 2 TRIB3 promotes EGFR recycling to enhance its stability and signaling activity. a Control or TRIB3-silenced A549 cells were treated with cycloheximide (CHX) (10 µg ml^−1) at indicated intervals and protein stability of EGFR was analyzed by IB. Data are means ± SEM of four independent assays. b A549 cells stably expressed control-shRNA or TRIB3-shRNA plasmid were stimulated with or without EGF (100 ng ml^−1) for 1 h. Indicated proteins were analyzed by IB analysis. Data represent means ± SEM of three independent assays. c Confocal microscopy images show the distribution of EGFR and early endosome antigen 1 (EEA-1) in control or TRIB3-silenced A549 cells before and after 0.5 or 1 h of EGF (100 ng ml^−1) stimulation. Quantification of EGFR and EEA-1 colocalization was shown as Pearson’s coefficient. Data are means ± SEM of three independent assays. d Quantitative analyses of cell surface EGFR in A549 cells stably expressed control-shRNA or TRIB3-shRNA1. Cells were preincubated with DMSO or 10 μM monensin for 4 h, and then treated with or without EGF (100 ng ml^−1) for another 1 h. The Mean Fluorescence Intensity (MFI) of EGFR on cell surface was detected by flow cytometry analysis. Top: representative flow cytometry data. Bottom: the data were normalized to A549/control-shRNA cells without EGF stimulation, which was considered as 100% MFI signal. Data are means ± SEM of three independent assays. e EGFR recycling was detected in A549 cells stably expressed control-shRNA or TRIB3-shRNA1 plasmid. Data are means ± SEM of three independent assays. f Colocalization analysis of EGFR with Rab11 and LAMP-1 before or after 30 min EGF treatment in control and TRIB3-silenced A549 cells. Quantification of EGFR/Rab11 or EGFR/LAMP-1 colocalization was shown as Pearson’s coefficient. Data represent means ± SEM of three independent assays. Statistical significance between two groups was determined with two-tailed Student’s t test. Statistical significance among groups was determined by one-way ANOVA test. Source data are provided as a Source Data file. […]
Live cells were stained with Alexa-Fluro 488 anti-EGFR antibody (Santa Cruz, R-1, #sc-101
AF488, 1:100). Analysis was performed using a PARTEC EPICSXL (Germany) and data was
analyzed using FCS Express 6. […]

The test system of the next data set is proteinase K. The data set is described as follows: Metabolic stability of peptide: proteinase K resistance. As to conditions: panel Fig.S6e. It counts as in vitro ADME. The protocol:
Metabolic stability of peptide
The sample solution consisted of 15 µl peptide solution (1 mM ) and 585 µl Tris-HCl (pH = 7.4) buffer. Pepsin solution (4,500 U ml-1, 8 µl) or proteinase K solution (4 ng ml-1, 8 µl) was added to the sample solution and incubated at 25℃ for indicated times. Peptide concentrations were […]
detected by Exactive™ Plus Orbitrap (Thermo Fisher Scientific, USA). […]

Setting [5] is: H1975 cells, treatment for 12 hr.

In the case of `COc1cc2ncnc(Nc3ccc(F)c(Cl)c3)c2cc1OCCCN1CCOCC1` [gefitinib], the “Tumor Weight” value came out at 0.95 g in the data set with A549 cells (animal 1); 0.28 g in the data set on A549 cells (animal 2); 0.5 g in the data set on A549 cells (animal 3); 0.76 g with A549 cells (animal 4); 0.71 g with A549 cells (animal 5); 0.63 g in the data set on A549 cells (animal 6). Further, the “Tumor Weight” value in the data set on A549 cells (animal 7) turned out to be 0.92 g; with A549 cells (animal 8) it was 0.87 g; in the data set on NCI-H1975 cells [1] (animal 1) it was 0.19 g; in the data set on NCI-H1975 cells [1] (animal 2) it was 0.56 g; in the data set with NCI-H1975 cells [1] (animal 3) it was 0.23 g; in the data set with NCI-H1975 cells [1] (animal 4), 0.63 g. Besides, the “Tumor Weight” value in the data set with NCI-H1975 cells [1] (animal 5) worked out at 0.13 g; in the data set on NCI-H1975 cells [1] (animal 6), 0.48 g; with NCI-H1975 cells [1] (animal 7), 0.33 g; in the data set on NCI-H1975 cells [1] (animal 8), 0.37 g.

Turning to `C=CC(=O)Nc1cc(Nc2nccc(-c3cn(C)c4ccccc34)n2)c(OC)cc1N(C)CCN(C)C` [AZD9291], the “expression / phosphorylation of STAT3, STAT5 (and ERK1/2) in xenograft tumor tissue” value in data set [2] is “upregulated the expression and phosphorylation of STAT3, STAT5, and ERK1/2”. Besides, the “expression of EGFR and TRIB3 in xenograft tumor tissue” value in data set [2] is “reduced TRIB3 and EGFR expression”. The “expression of pEGFR T654, PKCα, TRIB3 and EGFR” value in the data set on NCI-H1975 cells [3] (setting [5]) is “had no effect”. Moreover, in the data set with NCI-H1975 cells [3] (setting [5]), the “pEGFR Y1068” value is “markedly reduced”. In addition, the “phosphorylation and expression of HER2” value in the data set on NCI-H1975 cells [3] (NCI-H1975 cells, 5 µM peptide or 0.5 µM AZD9291, 24 hr) is reported as “suppressive effect on HER2 phosphorylation”. Further, the “Tumor Weight” value in the data set with NCI-H1975 cells [1] (animal 1) was determined as 0.09 g; with NCI-H1975 cells [1] (animal 2) it was 0.11 g; in the data set on NCI-H1975 cells [1] (animal 3), 0.04 g; in the data set with NCI-H1975 cells [1] (animal 4), 0.05 g; with NCI-H1975 cells [1] (animal 5), 0.07 g; in the data set with NCI-H1975 cells [1] (animal 6), 0.08 g. Moreover, the “Tumor Weight” value with NCI-H1975 cells [1] (animal 7) worked out at 0.02 g; with NCI-H1975 cells [1] (animal 8) it was 0.08 g.

As to “EGF: epidermal growth factor used as stimulus, 100 ng ml−1”, the “Cell Surface EGFR(%MFI)” value was found to be 80.5481 %MFI in data set [4] (A549/Control-shRNA, DMSO or 10 μM monensin 4 h, then EGF 100 ng ml−1 1 h, flow cytometry, A549/control-shRNA without EGF = 100%, replicate 1); 86.3646 %MFI in data set [4] (A549/Control-shRNA, same treatment, replicate 2); 89 %MFI in data set [4] (A549/Control-shRNA, same treatment, replicate 3); 27.82 %MFI in data set [4] (A549/TRIB3-shRNA, DMSO or 10 μM monensin 4 h, then EGF 100 ng ml−1 1 h, flow cytometry, A549/control-shRNA without EGF = 100%, replicate 1); 26.66 %MFI in data set [4] (A549/TRIB3-shRNA, same treatment, replicate 2); 25.66 %MFI in data set [4] (A549/TRIB3-shRNA, same treatment, replicate 3).

`CC[C@H](C)[C@H](NC(=O)[C@H](CCCNC(=N)N)NC(=O)[C@H](CC(C)C)NC(=O)[C@H](CC(C)C)NC(=O)[C@H](C)NC(=O)[C@H](CCC(N)=O)NC(=O)[C@@H](N)CC(N)=O)C(=O)N[C@@H](CC(C)C)C(=O)N[C@@H](CCCNC(=N)N)C(=O)N[C@@H](CCC(=O)O)C(=O)N[C@H](C(=O)N[C@@H](CCC(=O)O)C(=O)N[C@@H](Cc1ccccc1)C(=O)N[C@@H](CCCCN)C(=O)N[C@@H](CCCCN)C(=O)O)[C@@H](C)O` [JGZ]: the “Fraction Intact (%)” value is 15.4158% in the data set on proteinase K (time 45 min, replicate 1); 19.3884% in the data set on proteinase K (time 45 min, replicate 2); 17.4109% in the data set with proteinase K (time 45 min, replicate 3); 4.517% with proteinase K (time 90 min, replicate 1); 5.842% in the data set with proteinase K (time 90 min, replicate 2); 5.149% with proteinase K (time 90 min, replicate 3). Moreover, the “Fraction Intact (%)” value with proteinase K (time 135 min, replicate 1) was found to be 1.978%; in the data set on proteinase K (time 135 min, replicate 2), 2.87%; in the data set on proteinase K (time 135 min, replicate 3) it was 2.235%; in the data set on proteinase K (time 180 min, replicate 1), 0.9859%; in the data set on proteinase K (time 180 min, replicate 2), 1.636%; with proteinase K (time 180 min, replicate 3) it was 1.16%. The “Fraction Intact (%)” value with proteinase K (time 225 min, replicate 1) is recorded as 0.5923%; in the data set on proteinase K (time 225 min, replicate 2), 0.9865%; with proteinase K (time 225 min, replicate 3) it was 0.582%; in the data set with proteinase K (time 270 min, replicate 1), 0.003342%; with proteinase K (time 270 min, replicate 2) it was 0.3276%; in the data set with proteinase K (time 270 min, replicate 3), 0.1279%. Also, the “Fraction Intact (%)” value with proteinase K (time 360 min, replicate 1) is given as 0%; with proteinase K (time 360 min, replicate 2), 0.07064%; in the data set on proteinase K (time 360 min, replicate 3), 0.09951%; in the data set with proteinase K (time 450 min, replicate 1), 0%; with proteinase K (time 450 min, replicate 2), 0.04231%; with proteinase K (time 450 min, replicate 3), 0.01388%. Besides, the “Fraction Intact (%)” value in the data set with proteinase K (time 540 min, replicate 1) turned out to be 0%; in the data set on proteinase K (time 540 min, replicate 2) it was 0.01049%; with proteinase K (time 540 min, replicate 3), 0.003119%.
